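At the GI50, growth is halved. At the TGI there is no net growth.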
Tests used:
Assay in all cases: NCI anticancer screen, dose series, 384-well format
SK-OV-3 ovarian = system: SK-OV-3 ovarian
SF-268 CNS = system: SF-268 CNS
TK-10 renal = system: TK-10 renal
T-47D breast = system: T-47D breast
OVCAR-4 ovarian = system: OVCAR-4 ovarian
786-0 renal = system: 786-0 renal
SN12C renal = system: SN12C renal
LOX IMVI melanoma = system: LOX IMVI melanoma
SNB-19 CNS = system: SNB-19 CNS
RPMI-8226 leukemia = system: RPMI-8226 leukemia
NCI-H522 lung = system: NCI-H522 lung
OVCAR-5 ovarian = system: OVCAR-5 ovarian
HOP-92 NSCLC = system: HOP-92 NSCLC
BT-549 breast = system: BT-549 breast
OVCAR-8 ovarian = system: OVCAR-8 ovarian
SW-620 colon = system: SW-620 colon
MDA-MB-231 breast = system: MDA-MB-231 breast
OVCAR-3 ovarian = system: OVCAR-3 ovarian
NCI-H460 NSCLC = system: NCI-H460 NSCLC
SF-539 CNS = system: SF-539 CNS
K-562 leukemia = system: K-562 leukemia
RXF 393 renal = system: RXF 393 renal
M14 melanoma = system: M14 melanoma
COLO 205 colon = system: COLO 205 colon
SK-MEL-5 melanoma = system: SK-MEL-5 melanoma
CCRF-CEM leukemia = system: CCRF-CEM leukemia
HOP-62 NSCLC = system: HOP-62 NSCLC
IGROV1 ovarian = system: IGROV1 ovarian
NCI/ADR-RES ovarian = system: NCI/ADR-RES ovarian
PC-3 prostate = system: PC-3 prostate
MOLT-4 leukemia = system: MOLT-4 leukemia
HCT-116 colon = system: HCT-116 colon
KM12 colon = system: KM12 colon
MDA-MB-435 melanoma = system: MDA-MB-435 melanoma
ACHN renal = system: ACHN renal
SF-295 CNS = system: SF-295 CNS
MCF7 breast = system: MCF7 breast
HL-60(TB) leukemia = system: HL-60(TB) leukemia
UACC-257 melanoma = system: UACC-257 melanoma
MDA-MB-468 breast = system: MDA-MB-468 breast
U251 glioblastoma = system: U251 glioblastoma
HCT-15 colon = system: HCT-15 colon
CAKI-1 renal = system: CAKI-1 renal
A498 renal = system: A498 renal
SK-MEL-28 melanoma = system: SK-MEL-28 melanoma
NCI-H322M lung = system: NCI-H322M lung
HS 578T breast = system: HS 578T breast
A549 NSCLC = system: A549 NSCLC
UO-31 renal = system: UO-31 renal
HCC-2998 colon = system: HCC-2998 colon
SR leukemia = system: SR leukemia
NCI-H23 lung = system: NCI-H23 lung
EKVX NSCLC = system: EKVX NSCLC
NCI-H226 lung = system: NCI-H226 lung
HT29 colon = system: HT29 colon
MALME-3M melanoma = system: MALME-3M melanoma
SNB-75 CNS = system: SNB-75 CNS
DU-145 prostate = system: DU-145 prostate

## O=C(NC[C@H](O)CO)c1ccncc1Nc1ccc(I)cc1F
SK-OV-3 ovarian
  GI50: 23.1 µM
  TGI: > 100 µM
SF-268 CNS
  GI50: > 100 µM
  TGI: > 100 µM
TK-10 renal
  GI50: 2.24 µM
  TGI: 39 µM
T-47D breast
  GI50: 26.1 µM
  TGI: > 100 µM
OVCAR-4 ovarian
  GI50: 21.5 µM
  TGI: > 100 µM
786-0 renal
  GI50: 19.6 µM
  TGI: > 100 µM
SN12C renal
  GI50: 4.09 µM
  TGI: > 100 µM
LOX IMVI melanoma
  GI50: 0.0887 µM
  TGI: 1.72 µM
SNB-19 CNS
  GI50: 13.2 µM
  TGI: > 100 µM
RPMI-8226 leukemia
  GI50: 7.66 µM
  TGI: 47.3 µM
NCI-H522 lung
  GI50: 13.6 µM
  TGI: > 100 µM
OVCAR-5 ovarian
  GI50: 0.0476 µM
  TGI: > 100 µM
HOP-92 NSCLC
  GI50: 0.484 µM
  TGI: 3.62 µM
BT-549 breast
  GI50: 15 µM
  TGI: > 100 µM
OVCAR-8 ovarian
  GI50: 27 µM
  TGI: > 100 µM
SW-620 colon
  GI50: < 0.01 µM
  TGI: > 100 µM
MDA-MB-231 breast
  GI50: 0.449 µM
  TGI: 24.4 µM
OVCAR-3 ovarian
  GI50: 14 µM
  TGI: > 100 µM
NCI-H460 NSCLC
  GI50: 1.55 µM
  TGI: > 100 µM
SF-539 CNS
  GI50: 2.9 µM
  TGI: 25 µM
K-562 leukemia
  GI50: 0.423 µM
  TGI: > 100 µM
RXF 393 renal
  GI50: 2.03 µM
  TGI: 17.4 µM
M14 melanoma
  GI50: < 0.01 µM
  TGI: 0.0235 µM
COLO 205 colon
  GI50: < 0.01 µM
  TGI: 0.171 µM
SK-MEL-5 melanoma
  GI50: 0.0331 µM
  TGI: 13.9 µM
CCRF-CEM leukemia
  GI50: 34.5 µM
  TGI: > 100 µM
HOP-62 NSCLC
  GI50: 0.25 µM
  TGI: > 100 µM
IGROV1 ovarian
  GI50: 0.0849 µM
  TGI: 10.9 µM
NCI/ADR-RES ovarian
  GI50: 22.3 µM
  TGI: > 100 µM
PC-3 prostate
  GI50: > 100 µM
  TGI: > 100 µM
MOLT-4 leukemia
  GI50: 12.3 µM
  TGI: 25.2 µM
HCT-116 colon
  GI50: 0.0614 µM
  TGI: 1.45 µM
KM12 colon
  GI50: 0.0953 µM
  TGI: > 100 µM
MDA-MB-435 melanoma
  GI50: 0.0134 µM
  TGI: > 100 µM
ACHN renal
  GI50: 13.8 µM
  TGI: > 100 µM
SF-295 CNS
  GI50: 30.6 µM
  TGI: > 100 µM
MCF7 breast
  GI50: 18.9 µM
  TGI: > 100 µM
HL-60(TB) leukemia
  GI50: < 0.01 µM
  TGI: 0.0114 µM
UACC-257 melanoma
  GI50: < 0.01 µM
  TGI: 0.0319 µM
MDA-MB-468 breast
  GI50: 14.8 µM
  TGI: 36.2 µM
U251 glioblastoma
  GI50: 1.67 µM
  TGI: > 100 µM
HCT-15 colon
  GI50: 3.19 µM
  TGI: > 100 µM
CAKI-1 renal
  GI50: 0.433 µM
  TGI: > 100 µM
A498 renal
  GI50: 2.63 µM
  TGI: 34.5 µM
SK-MEL-28 melanoma
  GI50: < 0.01 µM
  TGI: 0.0136 µM
NCI-H322M lung
  GI50: 0.498 µM
  TGI: > 100 µM
HS 578T breast
  GI50: 16 µM
  TGI: > 100 µM
A549 NSCLC
  GI50: 0.3 µM
  TGI: 18.8 µM
UO-31 renal
  GI50: 0.354 µM
  TGI: 11.5 µM
HCC-2998 colon
  GI50: 0.0278 µM
  TGI: 0.217 µM
SR leukemia
  GI50: 1.33 µM
  TGI: 15.9 µM
NCI-H23 lung
  GI50: 0.0413 µM
  TGI: 1.73 µM
EKVX NSCLC
  GI50: 8.37 µM
  TGI: > 100 µM
NCI-H226 lung
  GI50: 0.614 µM
  TGI: 47.4 µM
HT29 colon
  GI50: 0.0156 µM
  TGI: > 100 µM
MALME-3M melanoma
  GI50: < 0.01 µM
SNB-75 CNS
  GI50: 8.92 µM
  TGI: 68 µM
DU-145 prostate
  GI50: 8.45 µM
  TGI: > 100 µM

From PubChem BioAssay (NCI)
